Data as given in US20050003022A1 (priority 2002, published 2005).

Assays:
influenza virus = system: influenza virus; design: species or system small mice; conditions: in vivo
influenza = conditions: in vivo; cited from earlier work
[1] = in vivo; cited from earlier work

Structure (SMILES) | small mouse protection ratio (ED50) (influenza virus) [mg/kg] | median day for alleviating influenza symptoms (influenza) [days] | reduction from average influenza case (influenza) [days] | utilization ratio of oral taken drug [1] [%]
NC(=O)c1ncn([C@@H]2O[C@H](CO)[C@@H](O)[C@H]2O)n1 [Ribavirin] | 25 | – | – | –
CC(=O)N[C@H]1[C@H]([C@H](O)[C@H](O)CO)OC(C(=O)O)=C[C@@H]1N=C(N)N [Zanamivir] | – | 6.5 | 1.3 | 2
